How the values were obtained:
Assay type in all cases: cell-based, human
C8161 cells [1] = assay: MICS (Membrane Invasion Culture System) invasion assay; conditions: C8161, ALK 4/5/7 inhibitor
Protocol: (A) Invasion of C8161 cells following culture on unconditioned Matrigel (Control) or Matrigel preconditioned by either H1 or HSF-6 hESCs was calculated as a percentage of cells able to invade through a defined matrix (collagen IV, laminin, and gelatin)-coated membrane during a 24 hour period using the MICS (Membrane Invasion Culture System) assay. Bars represent the mean, normalized, invasion indices±standard deviations. […] (B) In vivo tumor formation in a mouse injected with C8161 cells pre-exposed for 3 days to either a control matrix (Matrigel) or a matrix conditioned by hESCs (H9 CMTX) (n=21).
The aggressiveness of tumor cells is correlated with their ability to invade through the extracellular matrix; thus, the effect of hESC microenvironments on melanoma cell invasion was investigated.
The derivation and phenotypic characteristics of the human melanoma cell lines have been previously described. Seftor, et. al., 2002, Clin. Experim. Metastas. 19:233-246; Seftor, et. al., 2005 Cancer Res. 65:10164-10169. […] The cultures are determined to be free of mycoplasma contamination using a PCR-based assay (Roche). […]

Nodal = Nodal expression in C8161 cells (Western blot, real time RT-PCR); conditions: C8161, ALK 4/5/7 inhibitor 1 μM, 10 μM
Protocol: A determination of the effects of H9 CMTX on Nodal expression in metastatic melanoma (C8161) and breast carcinoma (MDA-MB-231) cells was undertaken. […] Exposure to H9 CMTX similarly abrogates Nodal mRNA expression in the melanoma and breast carcinoma cells (FIG. 9C).
Protein lysates were prepared and quantified as previously described in Hess et al., 2001, Cancer Res. 61:3250-3255. Equal amounts of protein were separated by SDS-polyacrylamide gel electrophoresis under reducing conditions, and the resolved proteins were transferred onto Immobilon-P membranes (Millipore Corp., Bedford, Mass.). Membranes were blocked in 1% TBS, 0.1% Tween 20 (TBS-T) and 5% dry milk powder or 3% gelatin (for Nodal Westerns). Blots were incubated with anti-Nodal or anti-Lefty antibodies (Polyclonal rabbit anti-Nodal (H-110) 1:500 Santa Cruz Biotechnology, Santa Cruz, Calif.; Polyclonal goat anti-Lefty 1:500 R&D Systems, Minneapolis, Minn.), washed in TBS-T, and incubated with the appropriate horseradish peroxidase-labeled secondary antibody. Secondary antibodies were detected by enhanced chemiluminescence (Super Signal; Pierce, Rockford, Ill.) and exposure to autoradiography film (Molecular Technologies, St Louis, Mo.). Nodal protein was detected as two major bands at ˜48 and ˜35 kDa representing precursor and pro-Nodal respectively. Nodal often appeared as multiple bands, likely due to degradation of protein modifications. All experiments were done at least three times.
The derivation and phenotypic characteristics of the human melanoma cell lines have been previously described. Seftor, et. al., 2002, Clin. Experim. Metastas. 19:233-246; Seftor, et. al., 2005 Cancer Res. 65:10164-10169. The melanoma cell lines are maintained in RPMI 1640 medium (Invitrogen) supplemented with 10% fetal bovine serum (FBS, Gemini Bioproducts) and 0.1% gentamycin sulfate with the exception of C81-61 cells which are maintained in Ham's FIO medium supplemented with 15% FBS, 1X Mito+ (BD Bioscience) and gentamycin sulfate. […] The cultures are determined to be free of mycoplasma contamination using a PCR-based assay (Roche). […]

C8161 cells [2] = assay: Vasculogenic mimicry and plasticity biomarkers in C8161 cells with ALK 4/5/7 inhibitor; conditions: C8161, ALK 4/5/7 inhibitor
Protocol: (A) Western blot analyses of Nodal, phosphorylated SMAD-2, total SMAD 2/3, and Actin in C8161 cells 48 hours after administration of either vehicle or an ALK 4/5/7 inhibitor (SB431542, 1 μM, 10 μM). […] (B) Western blot analyses of Nodal, Tyrosinase and Actin in C8161 cells 24 hours after the administration of either vehicle or different concentrations of ALK inhibitor while (C) is a Western analyses for VE-Cadherin, Keratin 18 and Actin in C8161 cells cultured on 3-D collagen I matrices for 6 days in the presence of vehicle or different concentrations of ALK inhibitor.

Notch = assay: Western blot analysis of Notch 1, 2 and 4 in C8161 cells; conditions: C8161 treated with Nodal inhibitor
Text: Western blot analysis of C8161 cells 72 hrs following the administration of siRNA. […] Western blot analysis of Notch 1, 2 and 4 in C8161 cells treated with the Nodal inhibitor SB431542.

## NC(=O)c1ccc(-c2nc(-c3ccc4c(c3)OCO4)c(-c3ccccn3)[nH]2)cc1 [SB431542]
C8161 cells [1]
  invasive ability: reduction in invasive ability
Nodal
  Nodal expression (Western blot): down-regulation of Nodal
C8161 cells [2]
  expression of vasculogenic mimicry plasticity biomarkers (Western blot): reduction
  vasculogenic mimicry: abrogation of vasculogenic mimicry
Notch
  Notch expression (Western blot): relatively unaffected
